Data from patent publication US20250049035A1, “MICROBIOCIDAL BICYCLE HETEROCYCLIC DERIVATIVES” (SYNGENTA CROP PROTECTION AG, priority 2021, published 2025).

Legend:
Alternaria solani = Alternaria solani / tomato / leaf disc (early blight); type: in vivo; conditions: foliar, tomato leaf disks cv. Baby, inoculated 2 days after application, assessed 5-7 days after application, compared to untreated control
Procedure: Example B1: Alternaria solani/Tomato/Leaf Disc (Early Blight) Tomato leaf disks cv. Baby are placed on agar in multiwell plates (24-well format) and sprayed with the formulated test compound diluted in water. The leaf disks are inoculated with a spore suspension of the fungus 2 days after application. The inoculated leaf disks are incubated at 23° C./21° C.

[1] = test system: Botryotinia fuckeliana (Botrytis cinerea); experiment: Botryotinia fuckeliana (Botrytis cinerea) / liquid culture (gray mould); type: cell-based; conditions: liquid culture (Vogels broth), growth inhibition photometrically 3-4 days after application, compared to untreated control
Procedure: Example B2: Botryotinia fuckeliana (Botrytis cinerea)/Liquid Culture (Gray Mould) Conidia of the fungus from cryogenic storage are directly mixed into a nutrient broth (Vogels broth). After placing a DMSO solution of test compound into a microtiter plate (96-well format), the nutrient broth containing the fungal spores is added. The test plates are incubated at 24° C. and the inhibition of growth is determined photometrically 3-4 days after application.

[2] = test system: Glomerella lagenarium (Colletotrichum lagenarium); experiment: Glomerella lagenarium (Colletotrichum lagenarium) / liquid culture (anthracnose); type: cell-based; conditions: Colletotrichum orbiculare, liquid culture (potato dextrose broth), growth inhibition photometrically 3-4 days after application, compared to untreated control
Procedure: Example B3: Glomerella lagenarium (Colletotrichum lagenarium)/Liquid Culture (Anthracnose) Conidia of the fungus from cryogenic storage are directly mixed into a nutrient broth (potato dextrose broth). After placing a DMSO solution of test compound into a microtiter plate (96-well format), the nutrient broth containing the fungal spores is added. The test plates are incubated at 24° C. and the inhibition of growth is measured photometrically 3-4 days after application.

[3] = test system: Monographella nivalis (Microdochium nivale); experiment: Monographella nivalis (Microdochium nivale) / liquid culture (foot rot cereals); type: cell-based; conditions: liquid culture (potato dextrose broth), growth inhibition photometrically 4-5 days after application, compared to untreated control
Procedure: Example B9: Monographella nivalis (Microdochium nivale)/Liquid Culture (Foot Rot Cereals) Conidia of the fungus from cryogenic storage are directly mixed into a nutrient broth (potato dextrose broth). After placing a DMSO solution of test compound into a microtiter plate (96-well format), the nutrient broth containing the fungal spores is added. The test plates are incubated at 24° C. and the inhibition of growth is determined photometrically 4-5 days after application.

[4] = test system: Mycosphaerella arachidis (Cercospora arachidicola); experiment: Mycosphaerella arachidis (Cercospora arachidicola) / liquid culture (early leaf spot); type: cell-based; conditions: liquid culture (potato dextrose broth), growth inhibition photometrically 4-5 days after application, compared to untreated control
Procedure: Example B10: Mycosphaerella arachidis (Cercospora arachidicola)/Liquid Culture (Early Leaf Spot) Conidia of the fungus from cryogenic storage are directly mixed into a nutrient broth (potato dextrose broth) After placing a DMSO solution of test compound into a microtiter plate (96-well format), the nutrient broth containing the fungal spores is added. The test plates are incubated at 24° C. and the inhibition of growth is determined photometrically 4-5 days after application.

Pyrenophora teres = Pyrenophora teres / barley / leaf disc preventative (net blotch); type: in vivo; conditions: foliar, barley leaf segments cv. Hasso, inoculated 2 days after application, assessed 5-7 days after application, compared to untreated control
Procedure: Example B12: Pyrenophora teres/Barley/Leaf Disc Preventative (Net Blotch) Barley leaf segments cv. Hasso are placed on agar in a multiwell plate (24-well format) and sprayed with the formulated test compound diluted in water. The leaf segments are inoculated with a spore suspension of the fungus 2 days after application. The inoculated leaf segments are incubated at 20° C. and 65% relative humidity under a light regime of 12 h light/12 h darkness in a climate cabinet and the activity of a compound is assessed as disease control compared to untreated when an appropriate level of disease damage appears in untreated check leaf segments (5-7 days after application).

[5] = test system: Mycosphaerella graminicola (Septoria tritici); experiment: Mycosphaerella graminicola (Septoria tritici) / liquid culture (Septoria blotch); type: cell-based; conditions: Zymoseptoria tritici, liquid culture (potato dextrose broth), growth inhibition photometrically 4-5 days after application, compared to untreated control
Procedure: Example B15: Mycosphaerella graminicola (Septoria tritici/Liquid Culture (Septoria Blotch) Conidia of the fungus from cryogenic storage are directly mixed into a nutrient broth (potato dextrose broth). After placing a DMSO solution of test compound into a microtiter plate (96-well format), the nutrient broth containing the fungal spores is added. The test plates are incubated at 24° C. and the inhibition of growth is determined photometrically 4-5 days after application.

[6] = test system: Phaeosphaeria nodorum (Septoria nodorum); experiment: Phaeosphaeria nodorum (Septoria nodorum) / wheat / leaf disc preventative (glume blotch); type: in vivo; conditions: Parastagonospora nodorum, foliar, wheat leaf segments cv. Kanzler, inoculated 2 days after application, assessed 5-7 days after application, compared to untreated control
Procedure: Example B8: Phaeosphaeria Nodorum (Septoria nodorum)/Wheat/Leaf Disc Preventative (Glume Blotch) Wheat leaf segments cv. Kanzler are placed on agar in a multiwell plate (24-well format) and sprayed with the formulated test compound diluted in water. The leaf disks are inoculated with a spore suspension of the fungus 2 days after application. The inoculated test leaf disks are incubated at 20° C. and 75% relative humidity under a light regime of 12 h light/12 h darkness in a climate cabinet and the activity of a compound is assessed as percent disease control compared to untreated when an appropriate level of disease damage appears in untreated check leaf disks (5-7 days after application).

C[C@H]1c2ccsc2[C@@](C)(c2cnn(C)c2)CN1C(=O)c1nnc(-c2ccc(F)cc2F)s1 (racemic) [Compound P-8, [5-(2,4-difluorophenyl)-1,3,4-thiadiazol-2-yl]-[rac-(4R,7R)-4,7-dimethyl-7-(1-methylpyrazol-4-yl)-4,6-dihydrothieno[3,2-c]pyridin-5-yl]methanone]
≥ 80%: pest or weed control at 200 ppm (Alternaria solani) | inhibition of growth at 20 ppm [1] | inhibition of growth at 20 ppm [2] | inhibition of growth at 20 ppm [3] | inhibition of growth at 20 ppm [4] | pest or weed control at 200 ppm (Pyrenophora teres) | inhibition of growth at 20 ppm [5]

C[C@@H]1c2sccc2[C@@H](c2cnn(C)c2)CN1C(=O)c1nnc(-c2ccc(F)cc2F)s1 (racemic) [Compound P-16, [5-(2,4-difluorophenyl)-1,3,4-thiadiazol-2-yl]-[rac-(4R,7R)-7-methyl-4-(1-methylpyrazol-4-yl)-5,7-dihydro-4H-thieno[2,3-c]pyridin-6-yl]methanone]
≥ 80%: inhibition of growth at 20 ppm [5]

C[C@@H]1c2sccc2[C@H](c2cnn(C)c2)CN1C(=O)c1nnc(-c2ccc(F)cc2F)s1 [Compound P-1, [5-(2,4-difluorophenyl)-1,3,4-thiadiazol-2-yl]-[(4S,7R)-7-methyl-4-(1-methylpyrazol-4-yl)-5,7-dihydro-4H-thieno[2,3-c]pyridin-6-yl]methanone]
≥ 80%: inhibition of growth at 20 ppm [3] | inhibition of growth at 20 ppm [5]

Cc1c([C@@H]2CN(C(=O)c3cc(-c4ccc(F)cc4F)on3)Cc3ccsc32)cnn1C [Compound P-4, [5-(2,4-difluorophenyl)isoxazol-3-yl]-[(7R)-7-(1,5-dimethylpyrazol-4-yl)-6,7-dihydro-4H-thieno[3,2-c]pyridin-5-yl]methanone]
≥ 80%: pest or weed control at 200 ppm (Alternaria solani) | inhibition of growth at 20 ppm [2] | pest or weed control at 200 ppm [6] | inhibition of growth at 20 ppm [3] | pest or weed control at 200 ppm (Pyrenophora teres) | inhibition of growth at 20 ppm [5]

C[C@@H]1c2sccc2[C@](C)(c2cnn(C)c2)CN1C(=O)c1nnc(-c2ccc(F)cc2F)s1 [Compound P-5, [5-(2,4-difluorophenyl)-1,3,4-thiadiazol-2-yl]-[(4S,7R)-4,7-dimethyl-4-(1-methylpyrazol-4-yl)-5,7-dihydrothieno[2,3-c]pyridin-6-yl]methanone]
≥ 80%: inhibition of growth at 20 ppm [2] | inhibition of growth at 20 ppm [4]

CC1c2ccsc2C(C)(c2cnn(C)c2)CN1C(=O)c1cc(-c2ccc(F)cc2F)on1 (centres unmarked) [Compound P-20, [5-(2,4-difluorophenyl)isoxazol-3-yl]-[4,7-dimethyl-7-(1-methylpyrazol-4-yl)-4,6-dihydrothieno[3,2-c]pyridin-5-yl]methanone]
≥ 80%: pest or weed control at 200 ppm (Alternaria solani) | inhibition of growth at 20 ppm [1] | inhibition of growth at 20 ppm [2] | pest or weed control at 200 ppm [6] | inhibition of growth at 20 ppm [4] | inhibition of growth at 20 ppm [5]

Cn1cc(C2CN(C(=O)c3cc(-c4ccc(F)cc4F)on3)Cc3cnsc32)cn1 (centres unmarked) [Compound P-23, [5-(2,4-difluorophenyl)isoxazol-3-yl]-[7-(1-methylpyrazol-4-yl)-6,7-dihydro-4H-isothiazolo[4,5-c]pyridin-5-yl]methanone]
≥ 80%: pest or weed control at 200 ppm (Alternaria solani) | inhibition of growth at 20 ppm [2] | inhibition of growth at 20 ppm [3] | inhibition of growth at 20 ppm [5]

Cn1cc(C2CN(C(=O)c3cc(-c4ccc(F)cc4F)on3)Cc3sncc32)cn1 (centres unmarked) [Compound P-26, [5-(2,4-difluorophenyl)isoxazol-3-yl]-[4-(1-methylpyrazol-4-yl)-5,7-dihydro-4H-isothiazolo[5,4-c]pyridin-6-yl]methanone]
≥ 80%: pest or weed control at 200 ppm (Alternaria solani) | inhibition of growth at 20 ppm [1] | inhibition of growth at 20 ppm [2] | pest or weed control at 200 ppm [6] | inhibition of growth at 20 ppm [3] | inhibition of growth at 20 ppm [5]

Cc1c(C2CN(C(=O)c3cc(-c4ccc(F)cc4F)on3)Cc3ncsc32)cnn1C (centres unmarked) [Compound P-28, [5-(2,4-difluorophenyl)isoxazol-3-yl]-[7-(1,5-dimethylpyrazol-4-yl)-6,7-dihydro-4H-thiazolo[4,5-c]pyridin-5-yl]methanone]
≥ 80%: pest or weed control at 200 ppm (Alternaria solani) | inhibition of growth at 20 ppm [2] | pest or weed control at 200 ppm [6] | inhibition of growth at 20 ppm [3] | inhibition of growth at 20 ppm [4] | pest or weed control at 200 ppm (Pyrenophora teres) | inhibition of growth at 20 ppm [5]

Cn1cc(C2CN(C(=O)c3cc(-c4ccc(F)cc4F)on3)Cc3cscc32)cn1 (centres unmarked) [Compound P-29]
≥ 80%: pest or weed control at 200 ppm (Alternaria solani) | inhibition of growth at 20 ppm [1] | inhibition of growth at 20 ppm [2] | pest or weed control at 200 ppm [6] | inhibition of growth at 20 ppm [3] | inhibition of growth at 20 ppm [4] | inhibition of growth at 20 ppm [5]

Cc1nn(C)c(C)c1C1CN(C(=O)c2cc(-c3ccc(F)cc3F)on2)Cc2sccc21 (centres unmarked) [Compound P-36, [5-(2,4-difluorophenyl)isoxazol-3-yl]-[4-(1,3,5-trimethylpyrazol-4-yl)-5,7-dihydro-4H-thieno[2,3-c]pyridin-6-yl]methanone]
≥ 80%: pest or weed control at 200 ppm (Alternaria solani) | inhibition of growth at 20 ppm [1] | inhibition of growth at 20 ppm [2] | inhibition of growth at 20 ppm [3] | inhibition of growth at 20 ppm [4] | pest or weed control at 200 ppm (Pyrenophora teres) | inhibition of growth at 20 ppm [5]

Cc1nn(C)c(C)c1C1CN(C(=O)c2cc(-c3ccc(F)cc3F)on2)Cc2ccsc21 (centres unmarked) [Compound P-37, [5-(2,4-difluorophenyl)isoxazol-3-yl]-[7-(1,3,5-trimethylpyrazol-4-yl)-6,7-dihydro-4H-thieno[3,2-c]pyridin-5-yl]methanone]
≥ 80%: pest or weed control at 200 ppm (Alternaria solani) | inhibition of growth at 20 ppm [3] | inhibition of growth at 20 ppm [4] | inhibition of growth at 20 ppm [5]
